From ChEMBL document CHEMBL1201862, “PubChem BioAssay data set” (2004)
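Test compounds were applied to cells in 96-well plates for 48 hours at 5 doses. GI50 is the concentration that inhibits growth by half.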 Activity calls are given as the source filed them. Cut-off read from the data, not from the text of the source: active = GI50 up to about 1.1 µM and inactive = higher.

Columns and labels:
Test in all cases: inhibition of tumour cell growth, NCI panel, 48 h
A498 = test system: A498
HCT-116 = test system: HCT-116
HOP-92 = test system: HOP-92
ACHN = test system: ACHN
OVCAR-5 = test system: OVCAR-5
LOX IMVI = test system: LOX IMVI
SK-MEL-2 = test system: SK-MEL-2
HL-60 = test system: HL-60
U-251 = test system: U-251
SF-539 = test system: SF-539
Malme-3M = test system: Malme-3M
IGROV-1 = test system: IGROV-1
OVCAR-3 = test system: OVCAR-3
SNB-75 = test system: SNB-75
NCI-H23 = test system: NCI-H23
UACC-257 = test system: UACC-257
SK-MEL-5 = test system: SK-MEL-5
TK-10 = test system: TK-10
MCF7 = test system: MCF7

Measured: GI50

Cc1cc(C)nc(NS(=O)(=O)c2ccc(NC(=O)c3cccc4c(Nc5ccc(S(=O)(=O)N=C(N)N)cc5)c5ccccc5nc34)cc2)n1
inactive: A498 > 100 µM | HCT-116 32.4 µM | HOP-92 19.9 µM | ACHN 47.1 µM | OVCAR-5 > 100 µM | LOX IMVI 39.5 µM | SK-MEL-2 52.8 µM | HL-60 5.56 µM | U-251 33.9 µM | SF-539 17.3 µM | Malme-3M > 100 µM | IGROV-1 40.4 µM | OVCAR-3 10.5 µM | SNB-75 38 µM | NCI-H23 40 µM | UACC-257 24.7 µM | SK-MEL-5 54.8 µM | TK-10 34.8 µM

c1ccc(C2(c3ccccc3)SSC3(S2)C2CC4CC(C2)CC3C4)cc1 (stereo not given)
inactive: A498 > 100 µM | HCT-116 > 100 µM | HOP-92 > 100 µM | ACHN > 100 µM | OVCAR-5 > 100 µM | LOX IMVI > 100 µM | SK-MEL-2 > 100 µM | HL-60 35.9 µM | U-251 > 100 µM | SF-539 > 100 µM | Malme-3M > 100 µM | IGROV-1 > 100 µM | SNB-75 > 100 µM | NCI-H23 > 100 µM | UACC-257 > 100 µM | SK-MEL-5 > 100 µM | TK-10 > 100 µM

N#CC(C(=O)/C(=N\NC(N)=O)C(C#N)c1ccc(Cl)cc1)c1ccc(Cl)cc1 (stereo not given)
inactive: A498 > 100 µM | HCT-116 > 100 µM | HOP-92 68.4 µM | ACHN > 100 µM | OVCAR-5 > 100 µM | LOX IMVI > 100 µM | SK-MEL-2 > 100 µM | HL-60 > 100 µM | U-251 > 100 µM | SF-539 > 100 µM | Malme-3M > 100 µM | IGROV-1 > 100 µM | OVCAR-3 > 100 µM | NCI-H23 > 100 µM | UACC-257 > 100 µM | SK-MEL-5 > 100 µM

Cc1cn(C2CC(OC3CCCCO3)C(CO)O2)c(=O)[nH]c1=O (stereo not given)
inactive: A498 > 100 µM | HCT-116 > 100 µM | HOP-92 > 100 µM | ACHN > 100 µM | OVCAR-5 > 100 µM | LOX IMVI > 100 µM | SK-MEL-2 > 100 µM | HL-60 > 100 µM | U-251 > 100 µM | SF-539 > 100 µM | Malme-3M > 100 µM | IGROV-1 > 100 µM | OVCAR-3 > 100 µM | NCI-H23 > 100 µM | UACC-257 > 100 µM | TK-10 > 100 µM

COC(=O)c1nc(-c2ccc(Cl)c(Cl)c2)nc2ccc(Cl)cc12
inactive: A498 73.1 µM | HCT-116 18.4 µM | HOP-92 10.8 µM | ACHN 44.6 µM | OVCAR-5 27.4 µM | SK-MEL-2 > 100 µM | HL-60 > 100 µM | U-251 43.7 µM | SF-539 17.5 µM | Malme-3M > 100 µM | IGROV-1 94.4 µM | OVCAR-3 > 10 µM | SNB-75 19.6 µM | NCI-H23 68.5 µM | UACC-257 > 100 µM | SK-MEL-5 > 100 µM | TK-10 44 µM

Cc1nc(C)c(N2CCN(S(N)(=O)=O)CC2)c(O)n1
inactive: A498 > 100 µM | HCT-116 > 100 µM | HOP-92 > 100 µM | ACHN > 100 µM | LOX IMVI > 100 µM | HL-60 > 100 µM | U-251 > 100 µM | MCF7 > 100 µM | SF-539 > 100 µM | Malme-3M > 100 µM | IGROV-1 > 100 µM | OVCAR-3 > 100 µM | NCI-H23 > 100 µM | UACC-257 > 100 µM | SK-MEL-5 > 100 µM | TK-10 > 100 µM
active: SNB-75 0.101 µM

CCc1cccc(C)c1N1C(=O)C(=O)C(c2nc3ccccc3o2)/C(=N/NC(=S)NN)C1=O (stereo not given)
inactive: A498 > 100 µM | HCT-116 > 100 µM | HOP-92 > 100 µM | ACHN > 100 µM | OVCAR-5 > 100 µM | LOX IMVI > 100 µM | SK-MEL-2 > 100 µM | HL-60 > 100 µM | U-251 > 100 µM | SF-539 > 100 µM | Malme-3M > 100 µM | IGROV-1 > 100 µM | OVCAR-3 > 100 µM | SNB-75 > 100 µM | NCI-H23 > 100 µM | UACC-257 > 100 µM | SK-MEL-5 > 100 µM | TK-10 > 100 µM

COc1ccc(Oc2nc3c(N)cc(C(F)(F)F)cc3nc2-c2ccccc2)cc1
inactive: A498 28.2 µM | HCT-116 27.7 µM | HOP-92 40.8 µM | ACHN 28.2 µM | LOX IMVI 17.3 µM | SK-MEL-2 12.2 µM | HL-60 59.6 µM | U-251 35.6 µM | MCF7 11.6 µM | SF-539 23.5 µM | IGROV-1 13.6 µM | SNB-75 17.7 µM | NCI-H23 50.9 µM | UACC-257 39.2 µM | SK-MEL-5 29.9 µM | TK-10 38.5 µM
